Data reported in patent US20260184710A1, “CASITAS B-LINEAGE LYMPHOMA PROTOONCOGENE B (CBL-B) DEGRADING COMPOUNDS AND ASSOCIATED METHODS OF USE” (Arvinas Operations, Inc., priority 2022, published 2026).

Biological target: T1, Cbl-b (Homo sapiens, UniProt Q13191)
T1 construct: Cbl-b-HiBit KI Jurkat Cells were purchased from Promega; host or cells: Cbl-b-HiBiT knock-in Jurkat cells
Experiment: Cbl-b Degradation Method B (Nano-Glo HiBiT lytic detection)
Type: cell-based
Settings: Cbl-b-HiBit KI Jurkat Cells, incubated at least 6-24 hours; for DC50: half maximal degradation, read-out: Cbl-b Degredation Method B IC50; for Dmax: maximum degradation observed, read-out: Cbl-b Degredation Method B Dmax (%)
Summary of the method: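 An 11-point, 3-fold compound dilution was applied for 6-24 hours to Jurkat cells carrying HiBiT-tagged endogenous Cbl-b. Lytic HiBiT luminescence quantified residual protein. Outputs are DC50 and Dmax relative to DMSO control.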

T1 sequence (Q13191 whole entry): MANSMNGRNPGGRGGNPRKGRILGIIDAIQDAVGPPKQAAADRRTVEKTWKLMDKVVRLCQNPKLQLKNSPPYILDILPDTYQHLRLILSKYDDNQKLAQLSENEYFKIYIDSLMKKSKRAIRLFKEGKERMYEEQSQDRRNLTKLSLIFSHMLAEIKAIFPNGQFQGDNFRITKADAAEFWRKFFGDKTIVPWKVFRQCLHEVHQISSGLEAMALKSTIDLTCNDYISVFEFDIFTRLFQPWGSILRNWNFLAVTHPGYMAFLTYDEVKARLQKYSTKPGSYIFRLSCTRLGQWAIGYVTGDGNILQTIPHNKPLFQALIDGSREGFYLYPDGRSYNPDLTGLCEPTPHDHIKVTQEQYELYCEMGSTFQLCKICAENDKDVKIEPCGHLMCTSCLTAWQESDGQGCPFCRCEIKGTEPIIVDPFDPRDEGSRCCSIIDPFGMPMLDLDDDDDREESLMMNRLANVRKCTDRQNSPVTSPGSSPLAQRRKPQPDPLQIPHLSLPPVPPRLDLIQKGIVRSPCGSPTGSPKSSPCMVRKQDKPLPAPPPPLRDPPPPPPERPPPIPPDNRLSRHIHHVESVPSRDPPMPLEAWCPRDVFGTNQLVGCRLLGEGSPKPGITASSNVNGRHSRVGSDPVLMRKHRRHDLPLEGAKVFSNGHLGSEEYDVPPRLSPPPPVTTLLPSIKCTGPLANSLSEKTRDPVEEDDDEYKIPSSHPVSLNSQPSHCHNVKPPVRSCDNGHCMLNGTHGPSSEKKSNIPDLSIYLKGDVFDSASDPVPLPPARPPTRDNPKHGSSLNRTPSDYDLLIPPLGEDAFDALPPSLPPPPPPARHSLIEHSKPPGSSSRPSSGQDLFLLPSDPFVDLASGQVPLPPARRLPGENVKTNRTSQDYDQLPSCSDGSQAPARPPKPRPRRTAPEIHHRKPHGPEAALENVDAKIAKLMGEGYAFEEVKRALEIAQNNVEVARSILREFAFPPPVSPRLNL

DC50 [nM]	Dmax [%]	Structure (SMILES)
< 5	> 70	C[C@H]1CN(CC2CCC(OC3CCN(c4ccc5c(c4F)CN(C4CCC(=O)NC4=O)C5=O)CC3)CC2)[C@@H](C)CN1Cc1cc2c(c(C(F)(F)F)c1)CN(c1cccc(C3(Cc4nncn4C)COC3)c1)C2=O (stereo partly drawn) [Example 242, 3-[4-fluoro-1-oxo-5-(4-{[(1rs,4rs)-4-{[(2S,5S)-2,5-dimethyl-4-{[2-(3-{3-[(4-methyl-4H-1,2,4-triazol-3-yl)methyl]oxetan-3-yl}phenyl)-3-oxo-7-(trifluoromethyl)-2,3-dihydro-1H-isoindol-5-yl]methyl}piperazin-1-yl]methyl}cyclohexyl]oxy}piperidin-1-yl)-2,3-dihydro-1H-isoindol-2-yl]piperidine-2,6-dione]
< 5	35 to 70	CC1c2nc(N3CCC(O[C@H]4CC[C@H](CN5CCN(Cc6cc7c(c(C(F)(F)F)c6)CN(c6cccc([C@]8(Cc9nncn9C)C[C@@H](C#N)C8)c6)C7=O)C(C)(C)C5)CC4)CC3)ccc2C(=O)N1C1CCC(=O)NC1=O (some centres unmarked) [Example 152, 3-[3-[6-[[4-[[4-[[1-[6-(2,6-dioxo-3-piperidyl)-7-methyl-5-oxo-7H-pyrrolo[3,4-b]pyridin-2-yl]-4-piperidyl]oxy]cyclohexyl]methyl]-2,2-dimethyl-piperazin-1-yl]methyl]-1-oxo-4-(trifluoromethyl)isoindolin-2-yl]phenyl]-3-[(4-methyl-1,2,4-triazol-3-yl)methyl]cyclobutanecarbonitrile]
5 to 50	< 35	CC1c2nc(N3CCC(O[C@H]4CC[C@H](CN5C[C@@H]6C[C@H]5CN6c5cc6c(c(C(F)(F)F)c5)CN(c5cccc([C@]7(Cc8nncn8C)C[C@H](C#N)C7)c5)C6=O)CC4)CC3)ccc2C(=O)N1C1CCC(=O)NC1=O (stereo partly drawn) [Example 182, (1r,3r)-3-[(4-methyl-4H-1,2,4-triazol-3-yl)methyl]-3-(3-{1-oxo-6-[(1S,4S)-5-{[(1r,4r)-4-({1-[6-(2,6-dioxopiperidin-3-yl)-7-methyl-5-oxo-5H,6H,7H-pyrrolo[3,4-b]pyridin-2-yl]piperidin-4-yl}oxy)cyclohexyl]methyl}-2,5-diazabicyclo[2.2.1]heptan-2-yl]-4-(trifluoromethyl)-2,3-dihydro-1H-isoindol-2-yl}phenyl)cyclobutane-1-carbonitrile]
> 500	–	Cc1cc(N2C[C@H]3C[C@@H]2CN3CC2CCC3(CC2)CN(c2cc4c(c(C(F)(F)F)c2)CN(c2cccc([C@]5(Cc6nncn6C)C[C@@H](C#N)C5)c2)C4=O)C3)c(F)c2c1C(=O)N(C1CCC(=O)NC1=O)C2 (stereo partly drawn) [Example 150, 3-[3-[6-[7-[[(1R,4R)-5-[2-(2,6-dioxo-3-piperidyl)-4-fluoro-7-methyl-1-oxo-isoindolin-5-yl]-2,5-diazabicyclo [2.2.1]heptan-2-yl]methyl]-2-azaspiro [3.5]nonan-2-yl]-1-oxo-4-(trifluoromethyl)isoindolin-2-yl]phenyl]-3-[(4-methyl-1,2,4-triazol-3-yl)methyl]cyclobutanecarbonitrile]
> 500	–	Cn1cnnc1CC1(c2cccc(-n3cc4c(C(F)(F)F)cc(CN5CCC[C@H](CN6CCC[C@H](OC7CCN(c8ccc9c(c8F)CN(C8CCC(=O)NC8=O)C9=O)CC7)C6)C5)cc4n3)c2)COC1 (stereo partly drawn) [Example 258, 3-[4-fluoro-5-(4-{[(3S)-1-{[(3S)-1-{[2-(3-{3-[(4-methyl-4H-1,2,4-triazol-3-yl)methyl]oxetan-3-yl}phenyl)-4-(trifluoromethyl)-2H-indazol-6-yl]methyl}piperidin-3-yl]methyl}piperidin-3-yl]oxy}piperidin-1-yl)-1-oxo-2,3-dihydro-1H-isoindol-2-yl]piperidine-2,6-dione]
> 500	–	Cn1cnnc1CC1(c2cccc(N3Cc4c(cc(CN5CCC5CC5CCN(c6ccc7c(c6)C(=O)N(C6CCC(=O)NC6=O)C7=O)CC5)cc4C(F)(F)F)C3=O)c2)COC1 (centres unmarked) [Example 70, 2-(2,6-dioxopiperidin-3-yl)-5-{4-[(1-{[2-(3-{3-[(4-methyl-4H-1,2,4-triazol-3-yl)methyl]oxetan-3-yl}phenyl)-3-oxo-7-(trifluoromethyl)-2,3-dihydro-1H-isoindol-5-yl]methyl}azetidin-2-yl)methyl]piperidin-1-yl}-2,3-dihydro-1H-isoindole-1,3-dione]
< 5	> 70	C[C@@H]1CN(Cc2cc3c(c(C(F)(F)F)c2)CN(c2cccc(C4(Cc5nncn5C)COC4)c2)C3=O)CCN1C[C@H]1CC[C@H](OC2CCN(c3ccc4c(c3F)CN(C3CCC(=O)NC3=O)C4=O)CC2)CC1 (stereo partly drawn) [Example 244, 3-[4-fluoro-1-oxo-5-(4-{[(1r*,4r*)-4-{[(2R)-2-methyl-4-{[2-(3-{3-[(4-methyl-4H-1,2,4-triazol-3-yl)methyl]oxetan-3-yl}phenyl)-3-oxo-7-(trifluoromethyl)-2,3-dihydro-1H-isoindol-5-yl]methyl}piperazin-1-yl]methyl}cyclohexyl]oxy}piperidin-1-yl)-2,3-dihydro-1H-isoindol-2-yl]piperidine-2,6-dione]
> 500	–	Cn1cnnc1C[C@]1(c2cccc(N3Cc4c(cc(CN5CCN(C[C@H]6CC[C@H](OC7CCN(c8ccc(C9CCC(=O)NC9=O)cn8)CC7)CC6)CC5)cc4C(F)(F)F)C3=O)c2)C[C@H](C#N)C1 (some centres unmarked) [Example 210, (1r,3r)-3-[(4-methyl-4H-1,2,4-triazol-3-yl)methyl]-3-(3-{1-oxo-6-[(4-{[(1r,4r)-4-({1-[5-(2,6-dioxopiperidin-3-yl)pyridin-2-yl]piperidin-4-yl}oxy)cyclohexyl]methyl}piperazin-1-yl)methyl]-4-(trifluoromethyl)-2,3-dihydro-1H-isoindol-2-yl}phenyl)cyclobutane-1-carbonitrile]
> 500	–	Cn1cnnc1CC1(c2cccc(N3Cc4c(cc(CN5CCC(CCC6CCN(c7ccc8c(c7)C(=O)N(C7CCC(=O)NC7=O)C8=O)CC6)CC5)cc4C(F)(F)F)C3=O)c2)COC1 (centres unmarked) [Example 71, 2-(2,6-dioxopiperidin-3-yl)-5-{4-[2-(1-{[2-(3-{3-[(4-methyl-4H-1,2,4-triazol-3-yl)methyl]oxetan-3-yl}phenyl)-3-oxo-7-(trifluoromethyl)-2,3-dihydro-1H-isoindol-5-yl]methyl}piperidin-4-yl)ethyl]piperidin-1-yl}-2,3-dihydro-1H-isoindole-1,3-dione]
> 500	–	Cn1cnnc1CC1(c2cccc(N3Cc4c(cc(CN5CCC6(CC5)CCN(c5ccc7c(c5)C(=O)N(C5CCC(=O)NC5=O)C7=O)CC6)cc4C(F)(F)F)C3=O)c2)COC1 (centres unmarked) [Example 27, 2-(2,6-dioxopiperidin-3-yl)-5-(9-{[2-(3-{3-[(4-methyl-4H-1,2,4-triazol-3-yl)methyl]oxetan-3-yl}phenyl)-3-oxo-7-(trifluoromethyl)-2,3-dihydro-1H-isoindol-5-yl]methyl}-3,9-diazaspiro[5.5]undecan-3-yl)-2,3-dihydro-1H-isoindole-1,3-dione]
< 5	35 to 70	CC1c2nc(N3CCC(O[C@H]4CC[C@H](CN5CCN(Cc6cc7c(c(C(F)(F)F)c6)CN(c6cccc(C8(Cc9nncn9C)COC8)c6)C7=O)C(C)(C)C5)CC4)CC3)ccc2C(=O)N1C1CCC(=O)NC1=O (relative stereo) [Example 246, rel-3-[7-methyl-5-oxo-2-(4-{[(1r,4r)-4-[(3,3-dimethyl-4-{[2-(3-{3-[(4-methyl-4H-1,2,4-triazol-3-yl)methyl]oxetan-3-yl}phenyl)-3-oxo-7-(trifluoromethyl)-2,3-dihydro-1H-isoindol-5-yl]methyl}piperazin-1-yl)methyl]cyclohexyl]oxy}piperidin-1-yl)-5H,6H,7H-pyrrolo[3,4-b]pyridin-6-yl]piperidine-2,6-dione]
5 to 50	> 70	Cn1cnnc1CC1(c2cccc(N3Cc4c(cc(CN5CCN(c6ccc7c(c6)CN(C6CCC(=O)NC6=O)C7=O)CC5)cc4C(F)(F)F)C3=O)c2)COC1 (centres unmarked) [Example 41, 3-[5-(4-{[2-(3-{3-[(4-methyl-4H-1,2,4-triazol-3-yl)methyl]oxetan-3-yl}phenyl)-3-oxo-7-(trifluoromethyl)-2,3-dihydro-1H-isoindol-5-yl]methyl}piperazin-1-yl)-1-oxo-2,3-dihydro-1H-isoindol-2-yl]piperidine-2,6-dione]
> 500	–	CC1c2nc(N3CCC(O[C@H]4CC[C@H](CN5CCN(Cc6cc(C(F)(F)F)c7c(n6)C(=O)N(c6cccc(C8(Cc9nncn9C)COC8)c6)C7)CC5)CC4)CC3)ccc2C(=O)N1C1CCC(=O)NC1=O (some centres unmarked) [Example 282, 3-[7-methyl-2-[4-[4-[[4-[[6-[3-[3-[(4-methyl-1,2,4-triazol-3-yl)methyl]oxetan-3-yl]phenyl]-7-oxo-4-(trifluoromethyl)-5H-pyrrolo[3,4-b]pyridin-2-yl]methyl]piperazin-1-yl]methyl]cyclohexoxy]-1-piperidyl]-5-oxo-7Hpyrrolo[3,4-b]pyridin-6-yl]piperidine-2,6-dione]
> 500	–	CC1c2nc(N3CCC(O[C@H]4CC[C@H](CN5CCN(Cc6cc(C(F)(F)F)c7cn(-c8cccc(C9(Cc%10nncn%10C)CCC9)c8)nc7c6)C(C)(C)C5)CC4)CC3)ccc2C(=O)N1C1CCC(=O)NC1=O (relative stereo) [Example 255, rel-3-[7-methyl-5-oxo-2-(4-{[(1r,4r)-4-[(3,3-dimethyl-4-{[2-(3-{1-[(4-methyl-4H-1,2,4-triazol-3-yl)methyl]cyclobutyl}phenyl)-4-(trifluoromethyl)-2H-indazol-6-yl]methyl}piperazin-1-yl)methyl]cyclohexyl]oxy}piperidin-1-yl)-5H,6H,7H-pyrrolo[3,4-b]pyridin-6-yl]piperidine-2,6-dione]
